The results in this text go back to PubChem BioAssay AID1159586 (Gregory J. Crowther, 2016).

For the assay, the target named is Plasmodium falciparum protein kinase 6 (PK6, PF3D7_1337100) (UniProt Q8IDW1). Kind of assay: PfPK6 kinase inhibitors, biochemical, TCAMS library (AID 1159586). The settings on record: recombinant PfPK6, Kinase-Glo ATP depletion luminescence.
Sequence of Plasmodium falciparum protein kinase 6 (PK6, PF3D7_1337100) (Q8IDW1 1-305): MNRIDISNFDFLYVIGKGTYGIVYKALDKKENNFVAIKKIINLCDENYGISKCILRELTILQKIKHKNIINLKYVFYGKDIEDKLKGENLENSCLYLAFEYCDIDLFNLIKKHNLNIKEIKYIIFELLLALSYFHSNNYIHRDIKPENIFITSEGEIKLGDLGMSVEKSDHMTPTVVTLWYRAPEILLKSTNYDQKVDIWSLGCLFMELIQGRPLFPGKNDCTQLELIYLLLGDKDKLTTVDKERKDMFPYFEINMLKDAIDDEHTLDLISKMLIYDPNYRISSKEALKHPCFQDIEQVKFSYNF
As for `O=S1(=O)NCc2ccc(Nc3nccc(Nc4ccc5c(cnn5Cc5ccccc5)c4)n3)cc21`, the IC50 was 265 nM.

Consider `CS(=O)(=O)Cc1ccc(Nc2nccc(-c3c(-c4cccc(C(=O)Nc5c(F)cccc5F)c4)nn4ccccc34)n2)cc1`, for which the half-inhibitory concentration (IC50) is 105 nM.

As to `CCN(CC)CCCOc1ccc(Nc2nccc(-c3c(-c4cccc(NC(=O)c5c(F)cccc5F)c4)nn4ccccc34)n2)cc1F`, the IC50 was 302 nM.

For `CN1CCC(NC(=O)c2cccc(Nc3cc(Nc4cccc(Br)c4)ncn3)c2)CC1`, the IC50 is 602 nM.

As for `CCN(CC)CCOc1ccc(Nc2ncc3cc(-c4c(Cl)cccc4Cl)c(=O)n(C)c3n2)cc1`, the IC50 is 350 nM.

On to `CC(=O)c1ccc(NC(=O)Nc2ccc(N(C)c3ccnc(Nc4cccc(CS(C)(=O)=O)c4)n3)cc2)cc1`, for which the IC50 was 138 nM.

On to `Cc1cc(Nc2ncc(Cl)c(Nc3ccccc3C(N)=O)n2)n[nH]1`, for which the IC50 is 129 nM.

Take `Cc1ccc(Nc2ccnc(Nc3ccc4c(c3)CS(=O)(=O)C4)n2)cc1O`: the IC50 was 122 nM.

For the compound `Cn1cc(-c2ccnc3[nH]c(-c4cccc(CNC5CCC(O)CC5)c4)cc23)cn1` (centres undefined), the IC50 is 177 nM.

Regarding `CN(c1ccc2c(c1)nc(NCc1ccccc1)n2C)c1ccnc(Nc2ccc(CS(C)(=O)=O)cc2)n1`, the IC50 was 464 nM.

Consider `NC(=O)c1ccccc1Nc1nc(Nc2cccc(N3CCN(CCO)CC3)c2)ncc1Cl`, for which the IC50 is 80 nM.

Take `Nc1ncc(-c2cccc(F)c2)cc1-c1nc2ccc(F)cc2[nH]1`: the IC50 was 206 nM.

For the compound `NS(=O)(=O)c1cccc(Nc2nccc(-c3cnn4ncccc34)n2)c1`, the half-inhibitory concentration (IC50) is 246 nM.

For `CS(=O)(=O)Cc1ccc(Nc2nccc(N3CCCc4cc(NC(=O)Nc5cccc(C(F)(F)F)c5)ccc43)n2)cc1`, the 50% inhibitory concentration (IC50) is 385 nM.

With `CN1CCN(c2ccc(Nc3nccc(-c4cnn5ncccc45)n3)cc2Cl)CC1`, the IC50 was 179 nM.

As for `CN(C)Cc1cccc(-c2cc3c(-c4cnn(C)c4)c(Cl)cnc3[nH]2)c1`, the IC50 is 128 nM.

With `Nc1ncnc2occ(-c3ccc(NC(=O)Nc4cc(C(F)(F)F)ccc4F)cc3)c12`, the IC50 is 335 nM.

For `O=C(Nc1cccc(-c2nn3ccccc3c2-c2ccnc(Nc3ccc(NCCCN4CCOCC4)c(F)c3)n2)c1)c1c(F)cccc1F`, the IC50 was 580 nM.

Turning to `CC(=O)Nc1ccc(Nc2ncc([N+](=O)[O-])c(Nc3ccccc3C(N)=O)n2)cc1`, the IC50 is 128 nM.

On to `COc1cccc(-n2ncc3c(N/N=C/c4ccc(CN(C)CCN(C)C)cc4)ncnc32)c1`, for which the IC50 was 58 nM.

With `CCN(CC)CCNc1nccc(N(C)c2ccc(NC(=O)Nc3cc(C(F)(F)F)ccc3F)cc2)n1`, the IC50 was 917 nM.

For the compound `COc1ccc(Nc2ncc(Cl)c(Nc3cccnc3C(N)=O)n2)cc1N1CCN(C)CC1`, the IC50 is 86 nM.

As to `N=C(N)c1ccc(Nc2nccc(Nc3nc(-c4ccccc4)cs3)n2)cc1`, the IC50 is 413 nM.

For `CN(C)CC(O)COc1ccc(Nc2ncc([N+](=O)[O-])c(Nc3ccccc3O)n2)cc1` (centres undefined), the IC50 is 67 nM.

For the compound `CN(c1ccc2c(c1)nc(NCc1ccc(F)cc1)n2C)c1ccnc(Nc2ccc(CS(C)(=O)=O)cc2)n1`, the IC50 is 844 nM.

Turning to `CC(=O)Nc1nc(C)c(-c2csc(Nc3ccc(Cl)cc3)n2)s1`, the IC50 was 95 nM.

With `COc1ccc(Nc2ncc3c(-c4cccc(NC(=O)Cc5ccc(O)cc5)c4)c[nH]c3n2)cc1OC`, the IC50 was 445 nM.

As for `NCCNC(=O)c1ccc(-c2cnc3[nH]cc(-c4ccc(C(N)=O)cc4)c3c2)cc1`, the IC50 was 931 nM.

Consider `COc1ccc(Nc2ncc(C#N)c(Nc3ccccc3C(N)=O)n2)cc1N1CCN(C)CC1`, for which the IC50 is 61 nM.

As for `CNC(=O)c1ccccc1Nc1nc(Nc2ccc(N3CCN(C)CC3)nc2)ncc1C`, the IC50 is 143 nM.

Consider `Cc1cc(Nc2nc(Nc3cccc(Cl)c3)nc3ccccc23)n[nH]1`, for which the IC50 was 151 nM.

On to `CCN(CC)CCNC(=O)c1ccc(Nc2ncc([N+](=O)[O-])c(Nc3ccccc3OC)n2)cc1`, for which the IC50 is 110 nM.

Turning to `N#Cc1cnc(Nc2ccc(Oc3ccccc3)cc2)nc1Nc1cccc(S(N)(=O)=O)c1`, the IC50 is 201 nM.

`CS(=O)(=O)Cc1ccc(Nc2ncc(Cl)c(Nc3cccnc3C(N)=O)n2)cc1`: the IC50 was 691 nM.

Consider `COc1c(CN2CCOCC2)cccc1-c1cc2c(-c3ccc(C(=O)O)c(C(C)C)c3)ccnc2[nH]1`, for which the concentration for half-maximal inhibition (IC50) is 695 nM.

Consider `CN(c1ccc(NC(=O)Nc2cc(C(F)(F)F)ccc2F)cc1)c1ccnc(NCCN2CCOCC2)n1`, for which the IC50 is 520 nM.

With `COc1c(CN2CCCC2)cccc1-c1cc2c(-c3ccc(C(=O)O)c(C(C)C)c3)ccnc2[nH]1`, the IC50 is 541 nM.

As to `CC(=O)Nc1cccc(Nc2nccc(-c3c(-c4cccc(NC(=O)c5c(F)cccc5F)c4)nn4ncccc34)n2)c1`, the IC50 was 144 nM.

With `CS(=O)(=O)Cc1cccc(Nc2ncc(Cl)c(Nc3cccnc3C(N)=O)n2)c1`, the IC50 is 74 nM.

In the case of `C#CCNC(=O)c1ccc(-c2ccnc(Nc3cccc(CCCN4CCOCC4)c3)n2)s1`, the IC50 is 181 nM.

As for `COc1ccc(Nc2ncc(OC)c(Nc3ccccc3C(N)=O)n2)cc1N1CCN(C)CC1`, the concentration for half-maximal inhibition (IC50) was 270 nM.

For the compound `CS(=O)(=O)Cc1ccc(Nc2nccc(-c3c(-c4cccc(NC(=O)C5CCCCC5)c4)nn4ncccc34)n2)cc1`, the IC50 is 139 nM.

For the compound `CN1CCN(c2ccc(Nc3ncc(C#N)c(Nc4ccccc4C(N)=O)n3)cc2)CC1`, the IC50 is 89 nM.

On to `Cc1ccc(S(=O)(=O)Nc2ccc(Nc3nccc(Nc4cccc5[nH]ncc45)n3)cc2)cc1`, for which the IC50 was 823 nM.

As to `CCNC(=O)Nc1ccc(N(C)c2ccnc(Nc3ccc(CS(C)(=O)=O)cc3)n2)cc1`, the IC50 was 269 nM.

`Cn1cnc2c(Nc3ccncc3)nc(-c3ccc4c(c3)OCO4)nc21`: the IC50 is 500 nM.

As to `Cc1cc(Nc2ncc(C#N)c(Nc3ccccc3C(N)=O)n2)ccc1N1CCN(C)CC1`, the half-inhibitory concentration (IC50) is 54 nM.

Turning to `O=c1[nH]ccc2nc(N[C@@H]3CCCNC3)nc(Nc3ccc(S(=O)(=O)N4CCOCC4)cc3)c12`, the IC50 was 115 nM.

Take `Cn1nc(-c2ccc(NC(=O)Nc3ccc4ccccc4c3)c(F)c2)c2cnc(NCCN3CCOCC3)nc21`: the IC50 is 860 nM.

Consider `O=C(Cc1ccc(Nc2nccc(Nc3cccc4[nH]ncc34)n2)cc1)Nc1ccc(C(F)(F)F)cc1`, for which the IC50 was 167 nM.

Turning to `CNC(=O)c1ccccc1Nc1nc(Nc2ccc(N3CCOCC3)cc2)ncc1Cl`, the concentration for half-maximal inhibition (IC50) was 42 nM.

For the compound `CC(c1cccc(Nc2nccc(-c3c(-c4cccc(NC(=O)c5c(F)cccc5F)c4)nn4ncccc34)n2)c1)S(C)(=O)=O` (centres undefined), the IC50 was 375 nM.

On to `N=C(N)c1ccc(Nc2nc(Nc3ccc(-c4ccccc4)cc3)ncc2[N+](=O)[O-])cc1`, for which the IC50 was 164 nM.

As to `Cc1ccc(Nc2nc3cc(Nc4ccnc(Nc5cccc(CS(C)(=O)=O)c5)n4)ccc3o2)cc1`, the IC50 was 229 nM.

On to `C(=N\Nc1nccc2sc(-c3ccccc3)cc12)/c1cccnc1`, for which the IC50 was 278 nM.

With `NCCNS(=O)(=O)c1ccc(-c2ccnc3[nH]c(-c4ccncc4)cc23)cc1`, the IC50 was 207 nM.

As to `CNC(=O)c1ccccc1Nc1nc(Nc2ccc(CCN3CCN(C)CC3)cc2)ncc1Cl`, the half-maximal inhibitory concentration (IC50) is 70 nM.

Regarding `CN(c1ccc(NC(=O)Nc2cccc(Cl)c2)cc1)c1ccnc(N)n1`, the IC50 was 402 nM.

Consider `CS(=O)(=O)Cc1ccc(Nc2nccc(-c3c(-c4cccc(NC(=O)c5c(F)cccc5F)c4)nn4ccccc34)n2)cc1`, for which the half-inhibitory concentration (IC50) is 276 nM.

Regarding `CNC(=O)c1ccccc1Nc1nc(Nc2cccc(CS(C)(=O)=O)c2)ncc1C`, the IC50 was 133 nM.

For the compound `CN(c1ccc(NC(=O)Nc2cc(C(C)(C)C)on2)cc1)c1ccnc(NCCN2CCOCC2)n1`, the IC50 was 375 nM.

Turning to `CCN(CC)CCCNc1nccc(N(C)c2ccc(NC(=O)Nc3cc(C(F)(F)F)ccc3F)cc2)n1`, the IC50 is 705 nM.

For the compound `NS(=O)(=O)c1ccc(Nc2nccc(-c3c(-c4cccc(NC(=O)c5c(F)cccc5F)c4)nn4ccccc34)n2)cc1`, the IC50 was 140 nM.

With `Cn1c(=O)c(-c2c(Cl)cccc2Cl)cc2cnc(Nc3ccc(N4CCOCC4)cc3)nc21`, the IC50 was 145 nM.
